According to article PMC11036874, “In vitro characterization of [^125I]HY-3-24, a selective ligand for the dopamine D3 receptor” (Frontiers in Neuroscience, 2024):
Entries after “also recorded” stand apart in the source; their conditions may differ.

Columns and labels:
human D2R = target: T1, human D2R (Homo sapiens, UniProt P14416); assay: D2R radioligand binding assay with [125I]IABN; conditions: human D2R transfected HEK293 cell membranes, mean ± SEM of three experiments
T1 construct: expressed in transfected cells; host or cells: HEK293
T1 sequence (P14416 whole entry): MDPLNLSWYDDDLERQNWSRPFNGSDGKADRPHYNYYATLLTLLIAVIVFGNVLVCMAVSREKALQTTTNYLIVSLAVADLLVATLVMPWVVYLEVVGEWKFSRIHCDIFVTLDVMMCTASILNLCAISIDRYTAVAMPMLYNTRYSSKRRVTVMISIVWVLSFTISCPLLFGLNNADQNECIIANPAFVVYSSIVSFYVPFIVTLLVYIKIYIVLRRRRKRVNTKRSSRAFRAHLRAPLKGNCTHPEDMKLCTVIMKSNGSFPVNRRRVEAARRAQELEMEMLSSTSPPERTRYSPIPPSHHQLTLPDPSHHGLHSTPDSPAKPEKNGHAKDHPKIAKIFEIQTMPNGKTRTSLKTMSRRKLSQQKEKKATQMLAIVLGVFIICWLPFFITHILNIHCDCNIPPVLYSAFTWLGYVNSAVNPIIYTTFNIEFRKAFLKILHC
Experimental: (§1) The dopamine receptor binding assay was performed according to previous studies ([Luedtke et al., 2000]; [Vangveravong et al., 2006]; [Reilly et al., 2017]), and human D2R or D3R or D4 transfected HEK293 cells were used for dopamine receptor binding assay. The cells were grown in Dulbecco’s Modified Eagle Medium including 10% FBS, 0.1% Penn Strep, […] of geneticin (G418) for human D2R or D3R transfected HEK293 cells, and […] of puromycin for human D4 HEK293 cells at 5% CO2, 37°C. The cells were collected by centrifuge (6,000 × g, 10 min), and the supernatant was discarded. Cold homogenization buffer (50 mM Na Hepes, 0.1 mM EDTA, 1 mM DTT, pH 7.4) was added into the pellet and homogenized by a polytron (Brinkmann Instruments, Westbury, NY, United States), and centrifuged at 40,000 × g for 10 min. This process was repeated two more times to get final pellet, and the membranes were then resuspended with HB buffer including 5 mM MgCl2 and stored at −80°C until use.
(§2) HY-3-24 was prepared in 10^−5 to 10^−11 M concentration range with assay buffer (50 mM Tris–HCl, 150 mM NaCl, 10 mM EDTA, pH 7.5). […] The membrane was washed with cold buffer (three times), and collected filters were counted on a gamma counter (GMI, Minnesota, United States). The results were analyzed by nonlinear regression, and the data were reported mean ± SEM values by three independent experiments.

human D4 = target: T2, human D4 (Homo sapiens, UniProt P21917); assay: D4R radioligand binding assay with [125I]IABN; conditions: human D4 transfected HEK293 cell membranes, mean ± SEM of three experiments
T2 construct: expressed in transfected cells; host or cells: HEK293
T2 sequence (P21917 whole entry): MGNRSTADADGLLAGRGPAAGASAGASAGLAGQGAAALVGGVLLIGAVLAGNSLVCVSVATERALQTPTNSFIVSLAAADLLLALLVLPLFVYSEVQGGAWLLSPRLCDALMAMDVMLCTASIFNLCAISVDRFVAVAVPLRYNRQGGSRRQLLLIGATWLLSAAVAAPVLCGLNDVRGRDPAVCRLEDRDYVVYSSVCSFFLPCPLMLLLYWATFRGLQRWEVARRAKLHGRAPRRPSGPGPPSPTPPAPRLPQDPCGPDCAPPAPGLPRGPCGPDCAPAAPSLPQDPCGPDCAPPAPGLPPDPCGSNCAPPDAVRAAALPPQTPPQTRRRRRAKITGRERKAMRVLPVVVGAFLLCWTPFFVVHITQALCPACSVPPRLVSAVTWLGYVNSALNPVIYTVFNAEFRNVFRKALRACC
Experimental: as §1, §2

sigma-1 = target: T3, sigma-1 (Cavia porcellus, UniProt Q60492); assay: Sigma-1 binding assay with [3H]-(+)-pentazocine; conditions: guinea pig brain homogenates
T3 construct: from tissue; host or cells: guinea pig brain homogenates
T3 sequence (Q60492 whole entry): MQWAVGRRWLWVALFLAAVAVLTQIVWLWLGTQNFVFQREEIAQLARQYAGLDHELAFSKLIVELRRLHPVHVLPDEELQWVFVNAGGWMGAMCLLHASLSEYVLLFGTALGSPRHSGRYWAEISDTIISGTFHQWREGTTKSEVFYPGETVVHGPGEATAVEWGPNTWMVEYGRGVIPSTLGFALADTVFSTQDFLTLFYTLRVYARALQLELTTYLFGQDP
Experimental: The preparation of protein homogenates and sigma binding assay were conducted as described previously ([Luedtke et al., 2000]). For sigma-1 binding assay, [^3H]-(+)-pentazocine (50 μL, ~50,000 cpm) and HY-3-24 (concentrations ranging from 10^−5 to 10^−11 M) were mixed, guinea pig brain homogenates (100 μg/100 μL) were added and the mixture was incubated at 5% CO2, 37°C for 90 min. The assay was terminated by adding cold buffer (10 mM Tris–HCl, 150 mM NaCl, pH 7.5), and the mixture was filtered htrough Whatman CF/C filters (Brandel Inc., Maryland, United States) which were soaked in 1% polyethyleneimine (PEI). The collected filter was washed three times using cold buffer; non-specific binding was determined in the presence of 10 μM of haloperidol. The collected filters were mixed with 3 mL of microscint™20 by and counted overnight (1 min/well) using a beta counter (MicroBeta^2®, PerkinElmer, United Kingdom). The data were analyzed using PRISM 9.

sigma-2 = target: T4, sigma-2 (Rattus norvegicus, UniProt Q5U3Y7); assay: Sigma-2 binding assay with [125I]RHM4; conditions: [125I]RHM4, rat liver homogenates
T4 construct: rat liver homogenates (15 μg/100 μL); from tissue; host or cells: rat liver homogenates
T4 sequence (Q5U3Y7 whole entry): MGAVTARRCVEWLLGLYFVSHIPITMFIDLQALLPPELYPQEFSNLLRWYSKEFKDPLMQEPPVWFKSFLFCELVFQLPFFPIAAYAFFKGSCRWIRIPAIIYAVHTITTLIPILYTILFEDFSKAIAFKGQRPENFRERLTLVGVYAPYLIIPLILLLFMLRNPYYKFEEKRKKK
Experimental: For sigma-2 binding assay, HY-3-24 prepared in 10^−5 to 10^−11 M concentration range was mixed with [^125I]RHM4 (50 μL,~200,000 cpm) and rat liver homogenates (15 μg/100 μL). The mixture was vortexed briefly and incubated at room temperature (RT) for 90 min. The [^125I]RHM4-bound membrane was collected through Whatman CF/C filters by 24-well harvester (Brandel Inc., Maryland, United States), and washed with 4 mL of cold buffer. The filters were counted on a gamma counter (PerkinElmer, Massachusetts, United States). Cold RHM4 was used for defining non-specific binding. The Ki value was obtained by PRISM 9.

adrenergic alpha2A = target: T5, adrenergic alpha2A (Homo sapiens, UniProt P08913); assay: PDSP binding screen; conditions: HCl salt
T5 construct: Psychoactive Drug Screening Program (PDSP)
T5 sequence (P08913 whole entry): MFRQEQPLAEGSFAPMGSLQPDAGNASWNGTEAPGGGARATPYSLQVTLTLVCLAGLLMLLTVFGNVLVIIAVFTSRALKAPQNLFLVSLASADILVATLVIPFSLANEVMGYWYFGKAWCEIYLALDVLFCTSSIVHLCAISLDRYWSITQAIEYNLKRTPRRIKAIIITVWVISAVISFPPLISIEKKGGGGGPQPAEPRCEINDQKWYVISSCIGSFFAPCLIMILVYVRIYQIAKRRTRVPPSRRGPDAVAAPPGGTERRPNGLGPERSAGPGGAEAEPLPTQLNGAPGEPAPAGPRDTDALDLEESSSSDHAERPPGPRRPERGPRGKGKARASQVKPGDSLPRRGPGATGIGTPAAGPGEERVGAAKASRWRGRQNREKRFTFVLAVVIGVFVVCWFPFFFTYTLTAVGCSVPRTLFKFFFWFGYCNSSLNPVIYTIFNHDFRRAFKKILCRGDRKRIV
From the text: (§3) The binding of HY-3-24 to various GPCRs was investigated through comprehensive screening by Psychoactive Drug Screening Program (PDSP) (Supplementary Table S1) ([Besnard et al., 2012]). These GPCRs included major neurotransmitter receptors family (e.g., dopamine, serotonin, histamine, opioid, muscarinic, adrenergic, sigma receptors, ɤ-amino-butyric acid type A, and benzodiazepine receptors) and transporters (e.g., dopamine, norepinephrine, and serotonin transporter).

sigma2 = target: T6, sigma2 (Homo sapiens, UniProt Q5BJF2); assay: PDSP binding screen; conditions: HCl salt
T6 construct: Psychoactive Drug Screening Program (PDSP)
T6 sequence (Q5BJF2 whole entry): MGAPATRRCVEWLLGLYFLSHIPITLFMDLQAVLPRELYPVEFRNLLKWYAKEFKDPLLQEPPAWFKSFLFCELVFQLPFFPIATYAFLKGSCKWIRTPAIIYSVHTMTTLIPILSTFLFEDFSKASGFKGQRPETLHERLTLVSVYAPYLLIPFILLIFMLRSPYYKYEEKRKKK
From the text: as §3

human D3R [1] = target: T7, human D3R (Homo sapiens, UniProt P35462); assay: β-arrestin recruitment assay for D3R; format: cell-based; design: expressed in transfected cells
T7 sequence (P35462 whole entry): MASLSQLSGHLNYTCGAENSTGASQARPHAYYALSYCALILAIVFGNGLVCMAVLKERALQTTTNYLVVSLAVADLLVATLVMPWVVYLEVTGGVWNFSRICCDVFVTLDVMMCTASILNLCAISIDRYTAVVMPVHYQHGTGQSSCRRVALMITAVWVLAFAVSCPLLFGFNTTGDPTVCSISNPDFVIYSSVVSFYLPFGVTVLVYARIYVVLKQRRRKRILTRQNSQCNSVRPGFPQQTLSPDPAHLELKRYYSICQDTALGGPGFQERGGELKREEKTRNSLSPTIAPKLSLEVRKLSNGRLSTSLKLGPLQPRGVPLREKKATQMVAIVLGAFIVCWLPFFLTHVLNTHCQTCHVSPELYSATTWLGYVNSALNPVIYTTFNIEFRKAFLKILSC
Experimental: Chinese hamster ovary CHO-K1 cells (CHO-K1) which were over expressed human D3R were cultured in assaycomplete™ cell culture kit 107 (DiscoverX, Fremont, CA, United States). Cells were seeded at a density of 25,000 cells per well of 96-well plate, and incubated at 5% CO2, 37°C. After 46 h, HY-3-24 was (10^−5 to 10^−11) in phosphate-buffered saline (PBS) was added to the cells. The plates were incubated for 30 min at 5% CO2, 37°C for the agonist binding assay; for the antagonist assay, cells were treated with 30 nM (EC80) of dopamine and then the mixture was incubated for 90 min. PathHunter™ β-arrestin recruitment assay kit (DiscoverX, Fremont, CA, United States) was added to each well, and the plate was incubated for 80 min at RT under the dark condition. The chemiluminescent signal was measured on a PerkinElmer Enspire plate reader (PerkinElmer, Boston, MA, United States). Data were analyzed by Prism followed by non-linear regression.

human D3R [2] = target: T7, human D3R; assay: D3R radioligand binding assay with [125I]IABN; design: expressed in transfected cells; host or cells: HEK293
Experimental: as §1
HY-3-24 was prepared in 10^−5 to 10^−11 M concentration range with assay buffer (50 mM Tris–HCl, 150 mM NaCl, 10 mM EDTA, pH 7.5). Membrane homogenates (5–15 μg) and [^125I]IABN (approximately 0.5 nM) was added into serial dilutions of the compound and incubated at 37°C, for 60 min. Total binding volume was 150 μL, and 20 μM of (+)-butaclamol was used to define non-specific binding. Cold buffer (10 mM Tris–HCl, 150 mM NaCl, pH 7.5) was added into the reaction tube to terminate binding assay, and mixture was quickly filtered through a Schleicher and Schuell No.32 filter (GE Heathcare Bio-Sciences, Pittsburgh, PA, United States). The membrane was washed with cold buffer (three times), and collected filters were counted on a gamma counter (GMI, Minnesota, United States). The results were analyzed by nonlinear regression, and the data were reported mean ± SEM values by three independent experiments.

[3] = [125I]IABN, human D3R transfected HEK293 cell membranes, mean ± SEM of three experiments

## CCN(CCCNC(=O)c1ccc(-c2ccncc2)cc1)CCNC(=O)c1cc(I)cc(OC)c1OC [HY-3-24, N-(2-(Ethyl(3-(4-(pyridin-4-yl)benzamido)propyl)amino)ethyl)-5-iodo-2,3-dimethoxybenzamide]
Human D2R
  Ki: 86.7 ± 11.9 nM
Human D4
  Ki: > 1000 nM
Human D4; listed as HY-2-34
  Ki D4R: negligible
sigma-1
  binding to sigma-1 receptors: did not bind
sigma-1; listed as HY-2-34
  binding to sigma-1 receptors: low affinity
sigma-2
  binding to sigma-2 receptors: did not bind
sigma-2; listed as HY-2-34
  binding to sigma-2 receptors: low affinity
Adrenergic alpha2A
  Ki: 2150 nM
sigma2
  Ki: 2310 nM
Human D3R [1]; agonist mode, 10^-5 to 10^-11 M, human D3R CHO-K1 cells
  EC50 β-arrestin recruitment D3R: no β-arrestin recruitment; also recorded: N.A (not active)
Human D3R [1]; antagonist mode, vs 30 nM (EC80) dopamine, human D3R CHO-K1 cells
  IC50: 1.5 ± 0.58 nM
Human D3R [1]; β-arrestin recruitment assay
  functional mode at D3R: antagonist
Human D3R [2]; [3]
  Ki: 0.67 ± 0.11 nM
  Ki D3R: sub-nM affinity
Human D3R [2]; from Ki values, [125I]IABN
  selectivity for D3R vs. D2R: ~ 129 fold
Human D3R [2]; ratio of Ki D2R to Ki D3R
  D2/D3 ratio: 129
